Counter-ions that a name gives are not always drawn.
Experiments:
Mus musculus = assay: Toxicity in Plasmodium berghei ANKA S infected NMRI mice (Mus musculus) assessed as death at 50 mg/kg, intraperitoneally twice a day after day 1 post-infection; assay type: organism-based; design: dose 50 mg/kg, route intraperitoneal; settings: in vivo, ip
[1] = system: Trypanosoma brucei rhodesiense; assay: Antitrypanosomal activity against Trypanosoma brucei rhodesiense; assay type: functional, organism-based
Trypanosoma cruzi = assay: Antitrypanosomal activity against Trypanosoma cruzi; assay type: functional, organism-based
Leishmania donovani = assay: Antileishmanial activity against Leishmania donovani; assay type: functional, organism-based
L6 = assay: Cytotoxicity against rat L6 cells; assay type: cell-based
[2] = Selectivity index, IC50 for rat L6 cells to IC50 for chloroquine and pyrimethamine-resistant Plasmodium falciparum K1; assay type: functional
Plasmodium berghei = assay: Antiplasmodial activity against Plasmodium berghei ANKA S infected NMRI mice (Mus musculus) as reduced parasitaemia at 50 mg/kg subcutaneous dose for 4 days; assay type: functional; design: scale not given: the % may be the effect or the level left
Plasmodium falciparum = assay: microbe, parasite or virus in culture; settings: K1, 3 h
[3] = Displacement of methyl green dye from DNA

## Cn1c2ccccc2c2c[n+](C)c3ccccc3c21.[I-]
Mus musculus
  Activity: Toxic
[1]
  IC50: 0.37 µM
Trypanosoma cruzi
  IC50: 236 µM
Leishmania donovani
  IC50: 1.15 µM
L6
  IC50: 12.7 µM
[2]
  Ratio IC50: >700
Plasmodium berghei
  Activity: 38.9%
Plasmodium falciparum
  IC50: 0.017 µM

## Cn1c2c3ccccc3nc-2c(-n2c3ccccc3c3nc4ccccc4cc32)c2ccccc21
[1]
  IC50: 96.4 µM
Trypanosoma cruzi
  IC50: 84.4 µM
Leishmania donovani
  IC50: > 65 µM
L6
  IC50: 165 µM

## C[C@@H]1CC[C@H]2[C@@H](C)C(=O)O[C@@H]3O[C@@]4(C)CC[C@@H]1[C@]32OO4 [ARTEMISININ]
Plasmodium falciparum
  IC50: 0.042 µg/mL

## O=C(Cn1ccnc1[N+](=O)[O-])NCc1ccccc1 [BENZNIDAZOLE]
Trypanosoma cruzi
  IC50: 1.5 µg/mL

## Cn1c2c3ccccc3nc-2c(-c2c3nc4ccccc4c-3n(C)c3ccccc23)c2ccccc21 [BISCRYPTOLEPINE]
[1]
  IC50: 2.57 µM
Trypanosoma cruzi
  IC50: 3.48 µM
Leishmania donovani
  IC50: 8.93 µM
L6
  IC50: 13.6 µM
Plasmodium falciparum
  IC50: 0.27 µM

## CCN(CC)CCCC(C)Nc1ccnc2cc(Cl)ccc12 (centres undefined) [CHLOROQUINE]
Plasmodium berghei
  Activity: 99.9%

## C[n+]1c2ccccc2cc2[n-]c3ccccc3c21 [CRYPTOLEPINE HYDROCHLORIDE]
[3]
  IC50: 65 µM
L6
  IC50: 1.12 µM

## Cn1cc2c3ccccc3nc-2c2ccccc21 [ISOCRYPTOLEPINE HYDROCHLORIDE]
[3]
  IC50: 119 µM
L6
  IC50: 1.19 µM

## C[n+]1cc2[nH]c3ccccc3c2c2ccccc21.[Cl-] [ISONEOCRYPTOLEPINE HYDROCHLORIDE]
[3]
  IC50: 124 µM
L6
  IC50: 4.32 µM
[2]
  Ratio IC50: 20
Plasmodium berghei
  Activity: 10.3%

## Nc1nc(N)nc(Nc2ccc([As]3SCC(CO)S3)cc2)n1 (centres undefined) [MELARSOPROL]
[1]
  IC50: 0.0038 µg/mL

## CCCCCCCCCCCCCCCCOP(=O)([O-])OCC[N+](C)(C)C [MILTEFOSINE]
Leishmania donovani
  IC50: 0.56 µg/mL

## Cn1c2nc3ccccc3c-2cc2ccccc21 [NEOCRYPTOLEPINE HYDROCHLORIDE]
[3]
  IC50: 93 µM
L6
  IC50: 3.24 µM

## COc1cc([C@@H]2c3cc4c(cc3[C@H](O)[C@H]3COC(=O)[C@H]23)OCO4)cc(OC)c1OC [PODOFILOX]
L6
  IC50: 0.018 µg/mL

## C=C[C@H]1CN2CC[C@H]1C[C@H]2[C@H](O)c1ccnc2ccc(OC)cc12 [QUININE]
[3]
  IC50: > 360 µM
